Test results reported in patent US9995734B2, “Human T cell line assay for evaluating the immunologic identity of glatiramer acetate preparations” (Mylan Inc., priority 2013, dated 2018).
“And” between values parts separate entries of the source, which are not always exact repeats. Equal values may be shown once.

Assays:
Type in all cases: cell-based, human
Donor 3 GMA T-Cell Lines = assay: ATP proliferation assay (CellTiter Glo), Donor 3 GMA T-cell lines, incl. reactivity to non-canonical GA peptides; settings: T-cell line 165-H11G
Donor 3 COP T-Cell Lines = assay: ATP proliferation assay (CellTiter Glo), Donor 3 COP T-cell lines, incl. reactivity to non-canonical GA peptides; settings: for Non-Canonical Peptide Non-Reactivity: proliferation <2 times no antigen control
Donor 4 COP T-Cell Lines = assay: ATP proliferation assay (CellTiter Glo), Donor 4 COP T-cell lines, incl. reactivity to non-canonical GA peptides; settings: for Non-Canonical Peptide Non-Reactivity: proliferation <2 times no antigen control; for Proliferation (luminescent ATP assay), Mean: T-cell line 205-1F4, Day 71, autologous B-LCL

poly (Glu-Lys-Tyr; 6:3:1) [GLT 631]
Proliferation (luminescent ATP assay), Mean (Donor 3 GMA T-Cell Lines; 1 μg/mL antigen, Day 50 of culturing, No Antigen Value 1485): 2763 RLU
Proliferation (luminescent ATP assay), Mean (Donor 3 GMA T-Cell Lines; 1.25 μg/mL antigen, autologous B-LCL): 29 RLU
Proliferation (luminescent ATP assay), Mean (Donor 3 GMA T-Cell Lines; 2.5 μg/mL antigen, autologous B-LCL): 344 RLU
Proliferation (luminescent ATP assay), Mean (Donor 3 GMA T-Cell Lines; 3 μg/mL antigen, Day 50 of culturing, No Antigen Value 1485): 2875 RLU
Proliferation (luminescent ATP assay), Mean (Donor 3 GMA T-Cell Lines; 5 μg/mL antigen, autologous B-LCL): 448 RLU
Proliferation (luminescent ATP assay), Mean (Donor 3 GMA T-Cell Lines; 10 μg/mL antigen, Day 50 of culturing, No Antigen Value 1485): 3028 RLU
Proliferation (luminescent ATP assay), Mean (Donor 3 GMA T-Cell Lines; 10 μg/mL antigen, autologous B-LCL): 435 RLU
Proliferation (luminescent ATP assay), Mean (Donor 3 GMA T-Cell Lines; 30 μg/mL antigen, Day 50 of culturing, No Antigen Value 1485): 3093 RLU
Non-Canonical Peptide Non-Reactivity (Donor 3 COP T-Cell Lines; 165-B6C): GLT 631
Non-Canonical Peptide Non-Reactivity (Donor 3 COP T-Cell Lines; 165-C4C): GLT 631
Non-Canonical Peptide Non-Reactivity (Donor 3 COP T-Cell Lines; 165-C7C): GLT 631
proliferation response to non-canonical peptides (Donor 3 COP T-Cell Lines; 165-E3C, separate experiment): did not react
Non-Canonical Peptide Non-Reactivity (Donor 3 COP T-Cell Lines; 165-F3C): GLT 631
Non-Canonical Peptide Non-Reactivity (Donor 3 COP T-Cell Lines; 165-F6C): GLT 631
Non-Canonical Peptide Non-Reactivity (Donor 3 COP T-Cell Lines; 165-U3C (so in the source)): GLT 631
Nonreactive T-Cell Line (Donor 3 COP T-Cell Lines; Donor 3 COP lines, stimulation with the non-canonical GA peptide): 165-B6C (Donor 3) and 165-C4C (Donor 3) and 165-C7C (Donor 3) and 165-E3C (Donor 3) and 165-F3C (Donor 3) and 165-F6C (Donor 3)
Proliferation (luminescent ATP assay), Mean (Donor 3 COP T-Cell Lines; T-cell line 165-C4C, 1 μg/mL antigen, Day 66 of culture, 0 μg/mL 1881): 2465
Proliferation (luminescent ATP assay), Mean (Donor 3 COP T-Cell Lines; T-cell line 165-C4C, 3 μg/mL antigen, Day 66 of culture, 0 μg/mL 1881): 2677
Proliferation (luminescent ATP assay), Mean (Donor 3 COP T-Cell Lines; T-cell line 165-C4C, 10 μg/mL antigen, Day 66 of culture, 0 μg/mL 1881): 2939
Proliferation (luminescent ATP assay), Mean (Donor 3 COP T-Cell Lines; T-cell line 165-C7C, 1.25 μg/mL antigen, autologous B-LCL): 273 RLU
Proliferation (luminescent ATP assay), Mean (Donor 3 COP T-Cell Lines; T-cell line 165-C7C, 2.5 μg/mL antigen, autologous B-LCL): 219 RLU
Proliferation (luminescent ATP assay), Mean (Donor 3 COP T-Cell Lines; T-cell line 165-C7C, 5 μg/mL antigen, autologous B-LCL): 273 RLU
Proliferation (luminescent ATP assay), Mean (Donor 3 COP T-Cell Lines; T-cell line 165-C7C, 10 μg/mL antigen, autologous B-LCL): 219 RLU
Proliferation (luminescent ATP assay), Mean (Donor 3 COP T-Cell Lines; T-cell line 165-F3C, 1 μg/mL antigen, Day 77 of culture, 0 μg/mL 1563): 2325
Proliferation (luminescent ATP assay), Mean (Donor 3 COP T-Cell Lines; T-cell line 165-F3C, 3 μg/mL antigen, Day 77 of culture, 0 μg/mL 1563): 2557
Proliferation (luminescent ATP assay), Mean (Donor 3 COP T-Cell Lines; T-cell line 165-F3C, 10 μg/mL antigen, Day 77 of culture, 0 μg/mL 1563): 2724
Proliferation (luminescent ATP assay), Mean (Donor 3 COP T-Cell Lines; T-cell line 165-F6C, 1.25 μg/mL antigen, Day 76 of culture, No Antigen value 517): 501
Proliferation (luminescent ATP assay), Mean (Donor 3 COP T-Cell Lines; T-cell line 165-F6C, 2.5 μg/mL antigen, Day 76 of culture, No Antigen value 517): 416
Proliferation (luminescent ATP assay), Mean (Donor 3 COP T-Cell Lines; T-cell line 165-F6C, 5 μg/mL antigen, Day 76 of culture, No Antigen value 517): 482
Proliferation (luminescent ATP assay), Mean (Donor 3 COP T-Cell Lines; T-cell line 165-F6C, 10 μg/mL antigen, Day 76 of culture, No Antigen value 517): 474
Non-Canonical Peptide Non-Reactivity (Donor 4 COP T-Cell Lines; 205-1B4): GLT 631
Non-Canonical Peptide Non-Reactivity (Donor 4 COP T-Cell Lines; 205-1C4): GLT 631
Non-Canonical Peptide Non-Reactivity (Donor 4 COP T-Cell Lines; 205-1F4): GLT 631
Non-Canonical Peptide Non-Reactivity (Donor 4 COP T-Cell Lines; 205-1H3): GLT 631
Non-Canonical Peptide Non-Reactivity (Donor 4 COP T-Cell Lines; 205-1H5): GLT 631
reactivity to non-canonical GA peptides (Donor 4 COP T-Cell Lines; 205-1H7, after seven stimulations, 0, 1, 10, 30 μg/mL): reactivity
Non-Canonical Peptide Reactivity (Donor 4 COP T-Cell Lines; 205-1H7, at least one proliferation value >=2 times no antigen control): GLT 631
Non-Canonical Peptide Non-Reactivity (Donor 4 COP T-Cell Lines; 205-1H11): GLT 631
Reactive T-Cell Line (Donor 4 COP T-Cell Lines; Donor 4 COP lines, at least a 50% increase in proliferation relative to a control after stimulation with the non-canonical GA peptide): 205-1H7 (Donor 4)
Nonreactive T-Cell Line (Donor 4 COP T-Cell Lines; Donor 4 COP lines, stimulation with the non-canonical GA peptide): 205-1B4 (Donor 4) and 205-1C4 (Donor 4) and 205-1F4 (Donor 4) and 205-1H3 (Donor 4) and 205-1H5 (Donor 4) and 205-1H11 (Donor 4)
Reactivity (proliferation), Mean (Donor 4 COP T-Cell Lines; T-cell line 205-1B4, 1 μg/mL antigen, No Antigen 830): 912 RLU
Reactivity (proliferation), Mean (Donor 4 COP T-Cell Lines; T-cell line 205-1B4, 3 μg/mL antigen, No Antigen 830): 1059 RLU
Reactivity (proliferation), Mean (Donor 4 COP T-Cell Lines; T-cell line 205-1B4, 10 μg/mL antigen, No Antigen 830): 1387 RLU
Reactivity (proliferation), Mean (Donor 4 COP T-Cell Lines; T-cell line 205-1B4, 30 μg/mL antigen, No Antigen 830): 1389 RLU
Reactivity (proliferation), Mean (Donor 4 COP T-Cell Lines; T-cell line 205-1C4, 1 μg/mL antigen, No Antigen 4464): 4559 RLU
Reactivity (proliferation), Mean (Donor 4 COP T-Cell Lines; T-cell line 205-1C4, 3 μg/mL antigen, No Antigen 4464): 4934 RLU
Reactivity (proliferation), Mean (Donor 4 COP T-Cell Lines; T-cell line 205-1C4, 10 μg/mL antigen, No Antigen 4464): 5616 RLU
Reactivity (proliferation), Mean (Donor 4 COP T-Cell Lines; T-cell line 205-1C4, 30 μg/mL antigen, No Antigen 4464): 5782 RLU
Proliferation (luminescent ATP assay), Mean (Donor 4 COP T-Cell Lines; 1 μg/mL antigen): 1938
Proliferation (luminescent ATP assay), Mean (Donor 4 COP T-Cell Lines; 3 μg/mL antigen): 1863
Proliferation (luminescent ATP assay), Mean (Donor 4 COP T-Cell Lines; 10 μg/mL antigen): 2504
Reactivity (proliferation), Mean (Donor 4 COP T-Cell Lines; T-cell line 205-1H5, 1 μg/mL antigen, No Antigen 749): 710 RLU
Reactivity (proliferation), Mean (Donor 4 COP T-Cell Lines; T-cell line 205-1H5, 3 μg/mL antigen, No Antigen 749): 885 RLU
Reactivity (proliferation), Mean (Donor 4 COP T-Cell Lines; T-cell line 205-1H5, 10 μg/mL antigen, No Antigen 749): 1153 RLU
Reactivity (proliferation), Mean (Donor 4 COP T-Cell Lines; T-cell line 205-1H5, 30 μg/mL antigen, No Antigen 749): 1294 RLU
